In publication PMC5177663 (Frontiers in Pharmacology, 2016):

Legend:
middle-aged mice = experiment: contextual serial discrimination (CSD) task, contextual memory; type: in vivo, C57/Bl6 mice; settings: for effect on SCM scores as compared to vehicle: Experiment 1, middle-aged mice, 9 days oral; for strength of contextual memory (SCM) score (% correct responses - % interference responses): Experiment 2, middle-aged mice, NS vs vehicle
Text: The memory task and apparatus has been fully described previously ([Chauveau et al., 2009]). The contextual serial discrimination (CSD) task is based on two successive discriminations in a four-hole board which can be retrieved with the help of specific temporal and contextual cues associated with each of them.
The acquisition phase took place in room A where animals learned two consecutive spatial discriminations (D1 and D2; Figure 1A) which differed by the color and texture of the floor and were separated by a 2-min delay interval. For both D1 and D2, 10 20-mg food pellets were available during the 6-min exploration sessions; for D2 specifically, the baited hole was consistently located in the opposite symmetrical hole. Environmental cues made of colored paper sheets were positioned at 1.00 m above the board. At the end of the acquisition phase, mice returned in the animal’s room for 24 h. Animals retained for the test phase in the present study for both Experiments 1 and 2 have eaten at least 7–8 pellets/10 during both acquisitions.
Mice were replaced on the D1 floor in the board without any pellet in the apparatus and were allowed to freely explore for 6 min during which the number of head-dips in each hole was counted. This allowed measures of the % of “correct responses” (head-dips into the hole previously baited on the same floor-context), the % of “interference responses” (head-dips into the hole previously baited at D2, on the other floor-context) (Figure 1B) and of the “strength” of “contextual memory” score (SCM) (% correct responses - % interference responses). Thus, since correct responses are based on the use of the internal context (color of the floor) and interferent responses are based on the use of spatial allocentric cues previously associated with the other floor, thus the trend of SCM score toward a positive difference represents the gain of internal contextual memory, at the expense of allocentric spatial one.
The two last administrations were delivered 1 h before the acquisition and test phases.
(§1) Independent groups of mice (N = 10 per group) were used. An additional group composed by young vehicle mice (4–5 months young-vehicles, N = 10) was added for determination of the aging effect on both memory and phosphorylated CREB immunoreactivities, as compared to middle-aged Vehicles. For the immunohistochemical study, animals submitted to D1 memory testing were compared to “naïve” mice isolated in the colony room (with N = 5 per group; Naïve condition) and that underwent the food deprivation procedure and drug treatments as behaving animals (Test condition).

[1] = tested on: acetylcholine extracellular levels; experiment: intracerebral microdialysis, acetylcholine in mPFC and ventral hippocampus; type: in vivo, Wistar (Han) rats; settings: at 30 min
Description: The locomotor activity of the rats was recorded simultaneously during the sampling as a control method to assess a possible contribution of the handling stress and drug administration to microdialysis data.
Male Wistar (Han) rats, weighting about 265 g, were used for the experiment. At their arrival at facility, rats were housed in humidity and temperature controlled room on a 12h light/dark cycle (light on at 6:00 h) with water and food available ad libitum. Rats were anaesthetized with isoflurane and stereotaxically implanted with two guide cannula: one into the ventral hippocampus (vHPC: Interaural + 3.7 mm, Lateral + 4.8 mm, Ventral -3.8 mm providing the final -8.0 mm for the tip of the microdialysis probe) and the second into the medial prefrontal cortex (mPFC: Interaural + 12.2 mm, Lateral - 0.5 mm, Ventral -1.6 mm providing the final -5.6 mm for the tip of the microdialysis probe). After a recovery of 5 days, a microdialysis probe was inserted into the each respective guide cannula of awake rat. The probes were perfused at a constant flow-rate of 1 µl/min with sterile artificial CSF solution in the absence of an AChE inhibitor (148 mM NaCl, 4 mM KCl, 0.8 mM MgCl2, 1.4 CaCl2, 1.2 mM Na2HPO4, 0.3 mM NaH2PO4, pH 7.2). Following 120-min stabilization period, the samples were collected every 30 minutes. The first 3 samples (-90 to 0 min) were taken for determination of basal extracellular levels of ACh. […] After finalizing the experiment, the animals were sacrificed by an overdose of isoflurane and dislocation of the neck.
The levels of ACh in the microdialysates were determined by high-performance liquid chromatography (HPLC) linked to a postcolumn immobilized enzyme reactor followed by electrochemical detection. Briefly, the HPLC system (HTEC-500, Eicom Corp.) included a pulse-free microflow pump, a degasser and an amperometric detector equipped with a platinum electrode. The potential of the working electrode vs. Ag/AgCl ref. electrode was set to +0.45 V vs. an Ag/AgCl reference elctrode. Samples were injected by use of a CMA/200 Refrigerated Microsampler (CMA/Microdialysis). The chromatograms were recorded and integrated by use of a computerized data acquisition system (DataApex, Prague, Czech Republic). ACh was separated on a 150 x 2.0 I.D. mm narrow-bore column, packed with C18 polymer gel, 4 μm particle size. The enzyme reactor AC-ENZYMPAK II (Eicom Corp.) was used. The mobile phase was a 50 mM potassium hydrogen carbonate buffer containing 3.7 mM sodium 1-octanesulfonate, 0.13 mM EDTA-2Na, final pH 7.2. […] Determination of ACh levels in the groups of rats treated with drugs and vehicle was performed in blind conditions.

[2] = tested on: phosphorylated CREB (pCREB); experiment: pCREB immunohistochemistry after behavioral testing; type: in vivo, C57/Bl6 mice; settings: test condition
Description: as §1
Thirty minutes after completion of the test session, mice were deeply anesthetized (Avertin, 10 mL/kg intraperitoneally i.p.), and perfused transcardially with an ice-cold solution of 4% paraformaldehyde in phosphate buffer (0.1 M, pH 7.4). After perfusion, brains were removed and post-fixed overnight in the same fixative at 4°C. Brains were then put in a sucrose solution (30% in Tris Buffer 0.1 M, pH 7.4) during 24 h. They were then frozen and cut in […] coronal free-floating sections with a freezing microtome (Leica) to proceed to immunochemistry.
Total CREB (tCREB) and phosphorylated CREB (pCREB) immunostainings were performed as described in full previously ([Vandesquille et al., 2013]; [Dominguez et al., 2014], [2016]). Countings were made in the following brain regions according to [Paxinos and Franklin (2001)] atlas: the CA1 of the dorsal (dCA1) and ventral (vCA1) hippocampus, the prelimbic cortex (PL), the dorsal striatum (St), the basolateral amygdala nucleus (BLA) and the medial septum nucleus (MS). Digital images were captured at 10X magnification using an Olympus (BX50) and an imaging analysis system (ImageJ®). At least six serial sections for each brain region were analyzed using a computerized image analysis system (Visiolab 2000®, Biocom, and V4.50). Quantification was expressed as mean number of positive nuclei per mm^2.

mice = experiment: primary observation (IRWIN) test; type: in vivo; settings: pharmacological doses, alone or in combination, data not shown
in vivo = experiment: in vivo
Description: The sampling times are 30 min, 1, 2, 4, and 6 h. In each mouse, two time points of blood sampling were performed. Plasma was extracted from the blood sample by centrifugation (+4°C, 3000 g, 10 min) and stored at -80°C. Then, plasma samples were sent in dry ice to MDS (MDS Pharma Services, Switzerland) for the pharmacokinetic analysis.

H3 receptors = tested on: H3 receptors; parameters: method as in Panayi et al., 2014; settings: rats, mice, monkeys memory paradigms; ref Panayi et al., 2014; cited from earlier work
[3] = middle-aged mice, Donepezil 0.3 mg/kg (ANOVA factor)

COc1cc2c(cc1OC)C(=O)C(CC1CCN(Cc3ccccc3)CC1)C2 (centres unmarked) [Donepezil, reference compound]
effect on SCM scores as compared to vehicle (middle-aged mice; Donepezil alone at all doses (0.1 and 0.3 mg/kg)): did not show significant effect | strength of contextual memory (SCM) score (% correct responses - % interference responses) (middle-aged mice; Donepezil 0.3 mg/kg alone): +7.48 ± 3.60 | maximal increase of ACh levels ([1]; rat mPFC, Donepezil 0.1 mg/kg i.p.): 175 % of predrug values | maximal increase of ACh levels ([1]; rat mPFC, Donepezil 0.3 mg/kg i.p.): 216 % of predrug values | maximal increase of ACh levels ([1]; rat vHPC, Donepezil 0.1 mg/kg i.p.): 180 % of predrug values | maximal increase of ACh levels ([1]; rat vHPC, Donepezil 0.3 mg/kg i.p.): 207 % of predrug values | increase of pCREB expression in the MS ([2]; Donepezil alone (0.3 mg/kg) as compared to vehicle): +174.3% | effect on pCREB immunopositive cells in the MS [2, 3]: significant increase | effect on pCREB immunopositive cells in the dCA1 [2, 3]: significant increase

NC(=O)c1ccc(OCCCN2CC3CCCC3C2)cc1 (centres unmarked) [S 38093]
effect on SCM scores as compared to vehicle (middle-aged mice; S 38093 0.1 mg/kg alone): did not show significant effect | effect on SCM scores as compared to vehicle (middle-aged mice; S 38093 1.0 mg/kg alone): did not show significant effect | strength of contextual memory (SCM) score (% correct responses - % interference responses) (middle-aged mice; S 38093 0.1 mg/kg alone): -14.3 ± 5.76 | strength of contextual memory (SCM) score (% correct responses - % interference responses) (middle-aged mice; S 38093 0.3 mg/kg alone): +5.19 ± 6.68 | observable clinical signs (mice): did not induce any observable clinical signs | AUC (in vivo; C57/Bl6, mouse, po, 0.1 mg/kg): 9.56 ng·h/mL | Cmax (in vivo; C57/Bl6, mouse, po, 0.1 mg/kg): 3.04 ng/mL | Tl/2 (in vivo; C57/Bl6, mouse, po, 1 mg/kg): 2.37 h | AUC (in vivo; C57/Bl6, mouse, po, 1 mg/kg): 92.4 ng·h/mL | Cmax (in vivo; C57/Bl6, mouse, po, 1 mg/kg): 55.6 ng/mL | plasma exposure when administered as a combination (in vivo; mouse): no increase | mean pharmacological dose with procognitive properties (H3 receptors): 0.3 mg/kg | maximal increase of ACh levels ([1]; rat mPFC, S 38093 3 mg/kg i.p., n.s.): 158 % of predrug values | maximal increase of ACh levels ([1]; rat mPFC, S 38093 10 mg/kg i.p.): 234 % of predrug values | maximal increase of ACh levels ([1]; rat vHPC, S 38093 3 mg/kg i.p.): 153 % of predrug values | maximal increase of ACh levels ([1]; rat vHPC, S 38093 10 mg/kg i.p.): 184 % of predrug values | effect on pCREB immunopositive cells in the dCA1 and the MS ([2]; middle-aged mice, S 38093 at both doses (0.1 and 0.3 mg/kg)): no significant effect
